Test results as given in patent US9012652B2, “Processes for producing cycloalkylcarboxamido-pyridine benzoic acids” (Vertex Pharmaceuticals Incorporated, priority 0208, dated 2015).
Counter-ions that a name gives are not always drawn.

Test: solubility in water
Format: physicochemical
Conditions: stated in words in the process description

With Cc1ccc(NC(=O)C2(c3ccc4c(c3)OC(F)(F)O4)CC2)nc1-c1cccc(C(=O)O)c1 [compound 9, 3-(6-(1-(2,2-difluorobenzo[d][1,3]dioxol-5-yl)cyclopropanecarboxamido)-3-methylpyridin-2-yl)benzoic acid.HCL salt] the solubility in water was “sparingly soluble”.
